Laboratory results published in US11274095B2, “Modulators of methyl modifying enzymes, compositions and uses thereof” (Constellation Pharmaceuticals, Inc., priority 2018, dated 2022).
pEC50: −log10 of the molar value.

Experiments:
H3K27me3 in Hela cells = assay: H3K27me3 Alpha Hela Assay (AlphaLISA); format: cell-based; details: Homo sapiens, HeLa, 72 h
Protocol: H3K27me3 Alpha Hela Assay (AlphaLISA). Ten different doses of each test compound (in a series of 3-fold dilutions) were plated in duplicate 384-well tissue culture treated plates (Catalog #6007680; Perkin Elmer, Waltham, Mass.). Hela cells grown in culture were trypsinized and counted using a Countess® cell counter (Catalog #C10281; Life Technologies, Grand Island, N.Y.). Cell were diluted to 67,000 cells per mL in10% DMEM (Catalog #10569-010 Life Technologies, Grand Island, N.Y.) and 15 μL (1,000 cells) were plated into each well using the Biotek MicroFlo™ Select Dispenser (BioTek Instruments, Inc. Vermont, USA),) of the 384-well plate. Plates were incubated at 37° C./5% CO2 for 72 hrs. One of the duplicate plates was processed for HeLa assay and the other for viability. 5 μL of Cell-Histone Lysis buffer (1×) (Catalog #AL009F1 Perkin Elmer; Waltham, Mass.) per well was added to the plate processed for AlphaLISA and the plate was incubated at RT for 30 minutes on a plate shaker with low speed (Model# 4625-Q Thermo Scientific; Waltham, Mass.). Then, 10 μL per well Histone Extraction buffer (catalog #AL009F2; Perkin Elmer; Waltham, Mass.) was added and the plate further incubated at RT for 20 min on plate shaker with low speed. Next, 10 μL of 5× mix of anti-K27me3 acceptor beads plus Biotinylated anti-Histone H3 (C-ter) Antibody (diluted to 3 nM final) (Catalog #AL118 Perkin Elmer; Waltham, Mass.) was added in each well. Dilution of the acceptor beads and anti-Histone H3 was done in 1× Histone Detection buffer (Catalog #AL009F3 Perkin Elmer; Waltham, Mass.) which was produced by diluting the 10× stock provided. The plate was sealed with an aluminum plate sealer and incubated at 23° C. for 60 min. Next, 10 μL 5× solution of Streptavidin Donor beads were added (Catalog #6760002 Perkin Elmer; Waltham, Mass.) (20 μg/mL final in 1× Histone Detection Buffer), =plate was sealed with Aluminum plate sealer and incubated at 23° C. for 30 min. The plates were then read using an EnVision-Alpha Reader (model #2104 Perkin Elmer; Waltham, Mass.). […]

Karpas-422 cell lines = assay: Karpas-422 viability assay (Cell Titer-Glo, Day 8); format: cell-based; details: Homo sapiens, KARPAS-422, 192 h, Cell Titer-Glo on Day 8
Protocol: Karpas-422 cell lines were obtained from DSMZ (Braunschweig, Germany) and were grown in RPMI-1640 media. All media contained 10% fetal bovine serum (FBS) and 1% penicillin/streptomycin (Invitrogen). 20K cells per well were plated onto 96 well compound coated plates. Cells were split and seeded at original plating density (based on the DMSO well counts) every 4 days into plates containing fresh EZH2 inhibitors. Relative cell numbers were assessed by Cell Titer-Glo luminescent cell viability assay (Promega) on Day 8. GraphPad Prism 5 was used for curve fitting and GI50 values were reported.

[1] = Cellular permeability in MDCK assay; format: in vitro ADME; details: dog, pH 7.4, MDCK II, with P-gp inhibitor GF120918 10 μM; for efflux ratio at 2.5 h, 2 μM: Papp(BA)/Papp(AB)
Protocol: Cell culture: MDCK II cells (obtained from Piet Borst at the Netherlands Cancer Institute) were seeded onto […] (PET) in 96-well BD insert systems at 2.5×10^5 cells/mL until to 4-7 days for confluent cell monolayer formation.
Experimental procedure: Test and reference compounds (nadolol, metoprolol and digoxin) were diluted with transport buffer (HBSS with 10mM Hepes, pH7.4) from stock solution to a concentration of 2 μM (<1% DMSO) and applied to the apical (A) or basolateral (B) side of the cell monolayer. Permeation of the test compounds from A to B direction or B to A direction was determined in duplicate with P-gp inhibitor (GF120918, 10 μM). Digoxin was tested at 10 μM from A to B direction or B to A direction with/without P-gp inhibitor (GF120918, 10 μM) as well, while nadolol and metoprolol were tested at 2 μM in A to B direction without P-gp inhibitor (GF120918, 10 μM) in duplicate. The plate was incubated for 2.5 hours in CO2 incubator at 37±1° C., with 5% CO2 at saturated humidity without shaking. In addition, the efflux ratio of each compound was also determined. Test and reference compounds were quantified by LC/MS/MS analysis based on the peak area ratio of analyte/IS. After transport assay, Lucifer yellow rejection assay are applied to determine the cell monolayer integrity. Buffers are removed from both apical and basolateral chambers, followed by the addition of 75 μL of 100 μM lucifer yellow in transport buffer and 250 μL transport buffer in apical and basolateral chambers, respectively. The plate is incubated for 30 minutes at 37° C. with 5% CO2 and 95% relative humidity without shaking. After 30 minutes incubation, 20 μL of lucifer yellow samples are taken from the apical sides, followed by the addition of 60 μL of Transport Buffer. And then 80 μL of lucifer yellow samples are taken from the basolateral sides. The relative fluorescence unit (RFU) of lucifer yellow is measured at 425/528 nm (excitation/emission) with a Molecular Device M2e plate reader.
Data analysis: The apparent permeability coefficient Papp (cm/s) was calculated using the equation: Papp=(dCr/dt)×Vr/(A×C0) Where dCr/dt is the cumulative concentration of compound in the receiver chamber as a function of time (μM/s); Vr is the solution volume in the receiver chamber (0.075 mL on the apical side, 0.25 mL on the basolateral side); A is the surface area for the transport, i.e. 0.0804 cm2 for the area of the monolayer; C0 is the initial concentration in the donor chamber (μM).
The efflux ratio was calculated using the equation: Efflux Ratio=Papp(BA)/Papp(AB) Percent recovery was calculated using the equation: % Recovery=100×[(Vr×Cr)+(Vd×Cd)]/(Vd×C0) Where Vd is the volume in the donor chambers (0.075 mL on the apical side, 0.25 mL on the basolateral side); Cd and Cr are the final concentrations of transport compound in donor and receiver chambers, respectively.
Percent of lucifer yellow in basolateral well is calculated using the equation:
[formula] where RFUApical and RFUBasolateral are the relative fluorescence unit values of lucifer yellow in the apical and basolateral wells, respectively; VApical and VBasolateral are the volume of apical and basolateral wells (0.075 mL and 0.25 mL), respectively. Percent lucifer yellow should be less than 2.

| pEC50 (H3K27me3 in Hela cells) | GI50 (Karpas-422 cell lines) [nM] | Papp at 2.5 h, 2 μM [1] [×10⁻⁶ cm/s] | efflux ratio at 2.5 h, 2 μM [1] | SMILES |
| --- | --- | --- | --- | --- |
| 9.09 | 9.7 | 8.9 | 0.64 | Cc1cc(Cl)c(CNC(=O)c2cc(Cl)c3c(c2C)OC(C)(C2CCC(N4CC(OC(F)F)C4)CC2)O3)c(=O)[nH]1 (single isomer, unassigned) [Example 13] |
| 9.48 | 3.5 | 2.5 | 1.8 | COC1CN(C2CCC(C3(C)Oc4c(Cl)cc(C(=O)NCc5c(SC)cc(C)[nH]c5=O)c(C)c4O3)CC2)C1 (single isomer, unassigned) [Example 17, 7-chloro-2-(4-(3-methoxyazetidin-1-yl)cyclohexyl)-2,4-dimethyl-N-((6-methyl-4-(methylthio)-2-oxo-1,2-dihydropyridin-3-yl)methyl)benzo[d][1,3]dioxole-5-carboxamide] |

Continued, compound first:

| SMILES | pEC50 (H3K27me3 in Hela cells) | GI50 (Karpas-422 cell lines) [nM] | Papp at 2.5 h, 2 μM [1] [×10⁻⁶ cm/s] | efflux ratio at 2.5 h, 2 μM [1] |
| --- | --- | --- | --- | --- |
| CSc1cc(C)[nH]c(=O)c1CNC(=O)c1cc(Cl)c2c(c1C)OC(C)(C1CCC(N3CC(OC4CC4)C3)CC1)O2 (single isomer, unassigned) [Example 9] | 9.21 | 3.7 | 3.8 | 1.4 |
| Cc1cc(Cl)c(CNC(=O)c2cc(Cl)c3c(c2C)OC(C)(C2CCC(N4CC(OC5CC5)C4)CC2)O3)c(=O)[nH]1 (single isomer, unassigned) [Example 8, 7-chloro-N-((4-chloro-6-methyl-2-oxo-1,2-dihydropyridin-3-yl)methyl)-2-(4-(3-cyclopropoxyazetidin-1-yl)cyclohexyl)-2,4-dimethylbenzo[d][1,3]dioxole-5-carboxamide] | 9.28 | 5 | 6.1 | 0.9 |
| CSc1cc(C)[nH]c(=O)c1CNC(=O)c1cc(Cl)c2c(c1C)OC(C)(C1CCC(N3CC(OC(F)F)C3)CC1)O2 (single isomer, unassigned) [Example 1, 7-chloro-2-(4-(3-(difluoromethoxy)azetidin-1-yl)cyclohexyl)-2,4-dimethyl-N-((6-methyl-4-(methylthio)-2-oxo-1,2-dihydropyridin-3-yl)methyl)benzo[d][1,3]dioxole-5-carboxamide] | 9.28 | 3.9 | 5.6 | 0.79 |
| CSc1cc(C)[nH]c(=O)c1CNC(=O)c1cc(Cl)c2c(c1C)OC(C)(C1CCC(N3CC(F)C3)CC1)O2 (single isomer, unassigned) [Example 12] | 9.23 | 4.4 | 6.3 | 1.2 |
| CSc1nc(C)[nH]c(=O)c1CNC(=O)c1cc(Cl)c2c(c1C)OC(C)(C1CCC(N3CC(OC(F)F)C3)CC1)O2 (single isomer, unassigned) [Example 10] | 8.72 | 20 | 6.5 | 0.69 |
